We go through four compounds from patent publication US20120115895A1, “TRICYCLIC INDOLE-DERIVED SPIRO DERIVATIVES AS CRTH2 MODULATORS” (Merck Serono S.A., priority 2009, published 2012).

The test system of series [1] is OVA-induced eosinophil recruitment in lung. The series is described as follows: OVA-induced lung eosinophilia in mice. The class given is in vivo, BALB/c mice. As to conditions: oral route, dose of 30 mg/Kg. Here is the method: BALB/c mice (6-8 weeks old) were immunized with ovalbumin (10 μg i.p) on day 0 and 7. In order to elicit a local inflammatory response in the lung, mice were challenged between day's 15-17 with a nebulised solution of ovalbumin (10 μg/ml; De Vilibiss Ultraneb 2000, once daily for 30 min during the 3 days). On each separate day between 15 and 17 each animal received via oral gavage the test compound, at t−1 h and t+7 h with respect to OVA exposure at t=0 h. Eight hours after the final OVA challenge, bronchoalveolar lavage (BAL) was then carried out. Total cell numbers in the BAL fluid samples were measured using a haemocytometer. Cytospin smears of the BAL fluid samples were prepared by centrifugation at 1200 rpm for 2 min at room temperature and stained using a DiffQuik stain system (Dade Behring) for differential cell counts.

Series [2] deals with T1, CRTH2 (Homo sapiens, UniProt Q9Y5Y4).
T1 sequence (Q9Y5Y4 1-395): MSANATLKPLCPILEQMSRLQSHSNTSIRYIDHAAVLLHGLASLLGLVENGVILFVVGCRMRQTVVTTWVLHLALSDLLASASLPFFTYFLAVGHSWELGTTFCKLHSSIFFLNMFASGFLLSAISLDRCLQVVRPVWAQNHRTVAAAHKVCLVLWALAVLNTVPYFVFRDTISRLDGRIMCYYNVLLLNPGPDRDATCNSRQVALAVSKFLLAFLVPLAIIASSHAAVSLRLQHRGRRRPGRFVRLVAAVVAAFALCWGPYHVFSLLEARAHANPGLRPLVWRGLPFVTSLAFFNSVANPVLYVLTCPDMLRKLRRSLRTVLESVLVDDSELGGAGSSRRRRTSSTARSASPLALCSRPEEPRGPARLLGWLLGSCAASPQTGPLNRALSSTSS
The series can be described thus: PGD2-induced eosinophil cell shape assay in human whole blood. The class given is cell-based. As to conditions: 10 nM PGD2. Also noted: endogenous in cells; host or cells: eosinophils in human whole blood from healthy volunteers. On the procedure: The test compounds were diluted in dimethylsulphoxide so that the total volume of dimethylsulfoxide was kept constant at 2% dimethylsulphoxide (Me2SO). Serial dilutions of 200 μM to 0.09 μM were prepared. Samples of 90 μl of human blood from healthy volunteers (Centre de Transfusion Sanguine de Genève) were pre-incubated in polypropylene Falcon tubes (BD 352063) for 20 minutes in a water bath at 37° C. with 10 μl of diluted compounds. For CRTH2 activation, 100 μl PGD2 (Cayman 12010) at 20 nM was added (10 nM final) to each tube and cells were maintained at 37° C. For negative control cells were treated with PBS. After 10 minutes, cell activation was stopped with 120 μl Formaldehyde 10% (4% final, Fluka 41650) and cells were rested for 10 minutes at room temperature. Fixed cells were transferred into polypropylene tubes and then treated for 1 hour in a water bath at 37° C. with 2 ml of Triton—Surfact-Amps X-100 (Pierce 28314) at 0.166% (0.13% Triton final). After several washes with PBS (red cells lysed progressively during washes, two washes are necessary), cells were analyzed by flow cytometry on a FACSCalibur.

The nature of series [3]: In vivo pharmacokinetic evaluation in mouse. The conditions noted are these: for Cmax: female, C57BL/6, mouse, plasma, po, 5 mg/Kg; for Cmax / Fz in mice: mice; for Fz in mice: oral bioavailability, 5 mg/kg po, 1 mg/kg i.v. Also noted: species or system C57BL/6 female mice. Here is the method: (§1) In order to study the pharmacokinetic (PK) profile of test compounds in vivo, Sprague Dawley male rats or C57BL/6 female mice were dosed intravenously or after oral gavage. For both species, test compounds were dosed in solution at 1 mg/kg for i.v. route (10% ethanol, 10% N,N-dimethylacetamide, 30% propylene glycol, 50% water, v/v) and in suspension at 5 mg/kg (0.5% carboxymethylcellulose suspension, containing 0.25% Tween 20 in water) for oral gavage. PK profile in rat was obtained from 3 animals per dosing route and mouse PK profile was determined from 3 animals for each time points. The volume of administration was 2 mL/kg for i.v. dosing in both species and either 5 mL/kg (rat) or 10 mL/kg (mouse) for oral gavage. Blood samples (100 µL/time point) were collected at 0.083 (5 min), 0.25, 0.5, 1, 4, 7 and 24 hours post-dose for i.v. dosing, and at 0.5, 1, 4, 7 and 24 h for oral dosing, into heparin-Li+ containing tubes. For rats, all blood samples were collected trough a catheter in the carotid artery (placed in the artery the day before the experiment), under light isoflurane anesthesia, and stored on ice until centrifugation and plasma isolation. For mouse, blood samples were collected from intracardiac puncture at sacrifice at each time point and processed as described above for the rat. Plasma samples were stored frozen until analysis (−20° C. to −70° C.). For bioanalysis, samples were processed by protein precipitation (acetonitrile, formic acid 0.1%, addition of 3 volumes) after addition of one internal standard and analysed using a sensitive and selective LC/MS/MS method. An aliquot of the resulting supernatant was subject to LC/MS/MS analysis using a reverse phase column (Waters Xterra, C8, (3.5 μm particle size, 2.1×50 mm) and a short gradient (1 min) from (Solvent A) 85% water, 15% acetonitrile and 0.1% formic acid to (Solvent B) 90% acetonitrile, 10% water and 0.1% formic acid followed by isocratic conditions of Solvent B for 3.5 min at 0.4 mL/min. Column effluent was monitored using a Sciex API 4000 triple quadrupole mass spectrometer with a Turbo V electrospray ion source. Unknown concentrations of test compounds were determined using a calibration curve ranging from 1 to 3000 ng/mL.

The target in series [4] is T1, CRTH2. The series can be described thus: Radioligand binding Scintillation Proximity Assay ([3H]PGD2, hCRTH2-CHO cell membranes). Also noted: host or cells: CHO cells. On the procedure: Adherent CHO cells expressing hCRTH2 (Euroscreen, Belgium) were cultured in 225 cm2 cell culture flasks (Corning, USA) in 30 ml of medium. After two rinses of phosphate buffered saline (PBS), cells were harvested in 10 ml of PBS containing 1 mM EDTA, centrifuged at 500×g for 5 min at 4° C. and frozen at −80° C. The pellet was re-suspended in 50 mM Tris-HCl, pH 7.4, 2 mM EDTA, 250 mM Sucrose, containing protease inhibitor cocktail tablets, (Complete EDTA-free, Roche, Germany) and incubated 30 min at 4° C. Cells were disrupted by nitrogen cavitation (Parr Instruments, USA) at 4° C. (800 p.s.i. for 30 min), and centrifuged at 500×g for 10 min at 4° C. Pellet containing nuclei and cellular debris was discarded and supernatant was centrifuged 60 min at 4° C. at 45000×g. Membrane pellet was re-suspended in storage buffer (10 mM HEPES/KOH pH 7.4, 1 mM EDTA, 250 mM sucrose, protease inhibitor cocktail tablets) using Dounce homogenization and frozen in liquid nitrogen, and stored at −80° C.
The inhibitory activity can be investigated by a radioligand binding Scintillation Proximity Assay (SPA) (Sawyer et al., Br. J. Pharmocol 2002, 137, 1163-72). The SPA radioligand binding assay was performed at room temperature in binding buffer (10 mM HEPES/KOH pH 7.4, 10 mM MnC12, with protease inhibitor cocktail tablets), containing 1.5 nM [3H]PGD2 (Perkin Elmer), 10-50 μg/ml of hCRTH2—CHO cell membrane protein and 2 mg/ml of Wheat-germ agglutinin Scintillation Proximity Assay beads (RPNQ0001, GE-Healthcare) in a final volume of 100 μl in 96 well plates (Corning, USA). Non-specific binding was determined in the presence of 10 μM PGD2 (Cayman, USA). Competing Compounds of Formula (I) were diluted in dimethylsulphoxide so that the total volume of dimethylsulfoxide was kept constant at 1% dimethylsulphoxide (Me2SO). Serial dilutions of 100 μM to 100 pM were prepared and 10 μl each of the compounds of Formula (I) stock solutions were added to the binding assay reagents and incubated for 90 min with agitation at room temperature. Binding activity was determined by using a 1450 Micro-beta scintillation counter (Wallac, UK).
A general note: SPA uses beads or plates that emit light when radiolabelled molecules are held near them.

Series [5] can be described thus: In vivo pharmacokinetic evaluation in rat. The arrangement: species or system Sprague Dawley male rats. The conditions noted are these: for Cmax: male, Sprague Dawley, plasma, po, 5 mg/Kg; for Cmax / Fz in rats: rats; for Fz in rats: oral bioavailability, 5 mg/kg po, 1 mg/kg i.v. On the procedure: as §1
Where [6] appears, read: 1.5 nM [3H]PGD2, hCRTH2-CHO membranes, SPA, read-out: IC50 binding.
Where [7] appears, read: comparison table with (+)-Enantiomer, read-out: Binding IC50.

pIC50: −log10 of the molar value.

On to `CN1C(=O)N(Cc2cc(Cl)ccc2F)C(=O)C12C(=O)N(CC(=O)O)c1ccc(Cl)cc12` (single isomer, unassigned; (+)) [Example 2, (+)-[5′-chloro-1-(5-chloro-2-fluorobenzyl)-3-methyl-2,2′,5-trioxospiro[imidazolidine-4,3′-indol]-1′(2′H)-yl]acetic acid], for which the “inhibition of OVA-induced eosinophil recruitment in lung” value in series [1] was determined as 79%. Moreover, the results for the pIC50 on CRTH2 [2], on CRTH2 [4] (setting [6]) and on CRTH2 [4] (setting [7]) were 6.82, 7.35 and 7.17, respectively. The Cmax (as a rule, the highest concentration seen after dosing) in series [3] worked out at 691 ng/mL; in series [5] (rat), 489 ng/mL. Moreover, the “oral bioavailability in mouse” value in series [3] (mouse, in words) is listed as “significant improvement”. In series [3], this compound registered a Fz in mice of 39%. The same compound returned a Fz in rats in series [5] of 37%. Moreover, in series [5] (rat, in words), the “oral bioavailability in rat” value was “significant improvement”.
For `O=C(O)CN1C(=O)C2(NC(=O)N(Cc3cc(Cl)ccc3F)C2=O)c2cc(Cl)ccc21` (single isomer, unassigned; (+)) [(+)-Enantiomer, (+)-[5′-Chloro-1-(5-chloro-2-fluorobenzyl)-2,2′,5-trioxospiro[imidazolidine-4,3′-indol]-1′(2′H)-yl]acetic acid, reference compound], the pIC50 – broadly, the IC50 on a negative log10 scale, so that one unit is a factor of ten – against CRTH2 [2] was 7.30; on CRTH2 [4] (setting [7]), 7.68. The peak concentration (Cmax) in series [3] stood at 113 ng/mL; in series [5] (rat), 151 ng/mL. The Fz in mice in series [3] is 6%. Further, the “activity on DP2” value at CRTH2 [4] (first eluting enantiomer compared with second eluting enantiomer) was “better activity”. In series [5], this compound displayed a Fz in rats of 5.3%.
Turning to `CN1C(=O)N(Cc2nc3ccccc3s2)C(=O)C12C(=O)N(CC(=O)O)c1ccc(Cl)cc12` (stereo not shown) [Example 11, [1-(1,3-benzothiazol-2-ylmethyl)-5′-chloro-3-methyl-2,2′,5-trioxospiro[imidazolidine-4,3′-indol]-1′(2′H)-yl]acetic acid], the negative-log IC50 (pIC50) on CRTH2 [4] (setting [6]) is 6.02.
Take `CN1C(=O)N(CCc2cccc(F)c2)C(=O)C12C(=O)N(CC(=O)O)c1ccc(Cl)cc12` (stereo not shown) [Example 13, [15′-chloro-1-[2-(3-fluorophenyl)ethyl]-3-methyl-2,2′,5-trioxospiro[imidazolidine-4,3′-indol]-1′(2′H)-yl]acetic acid]: at CRTH2 [4] (setting [6]), the pIC50 was 6.04.
